In PubChem BioAssay AID652246 (Sanford-Burnham Center for Chemical Genomics, 2013):
Active and inactive are the calls of the source. No rule for the calls is given here.

Tested on: HT1080 viability, ATPLite luminescence, overnight
Assay: viability of HT1080 fibrosarcoma cells – cell-based, ATPLite luminescence, set 2, cytotoxicity control for MT1-MMP activation inhibitor project, dose response (AID 652246)

| SMILES | IC50 |
| --- | --- |
| O=c1cc2oc3cc(O)c(O)cc3c(-c3ccccc3[N+](=O)[O-])c-2cc1O | > 80 µM (inactive) |
| O=C(NNc1c2ccccc2nc2ccccc12)c1ccccc1O | > 80 µM (inactive) |
| CN(CCCC(=O)O)c1ccc(N=Nc2ccc([N+](=O)[O-])cc2)cc1 | 15.8 µM |
| COc1ccccc1N=Nc1nc(-c2ccccc2)c(-c2ccccc2)[nH]1 | > 80 µM (inactive) |
| CN1/C(=C/C=C/c2n(C)c3cc([N+](=O)[O-])c([N+](=O)[O-])cc3[n+]2C)C(C)(C)c2ccccc21 | 39.5 µM (inactive) |
| Nc1nc(-c2ccccc2)c(N=Nc2ccccc2Cl)s1 | > 80 µM (inactive) |
| COc1ccc2nc(-n3c(O)c(C4=c5ccccc5=NC4=O)[nH]c3=S)sc2c1 | > 80 µM (inactive) |
| Cn1cccc1/C=C1/C(=O)NC(=S)N(Cc2ccc(F)cc2)C1=O | > 80 µM (inactive) |
| COc1cc(-c2cc(=O)c3c(O)c(OC)c(OC)cc3o2)cc(OC)c1O | > 80 µM (inactive) |
| CC[n+]1c(/C=C/Nc2ccccc2)sc2ccccc21 | > 80 µM (inactive) |
| O=S(=O)(O)c1cc(O)c(N=Nc2ccc(O)cc2O)c2ccccc12 | 30.5 µM (inactive) |
| CN1/C(=C\C(=O)c2cncc(Br)c2)C(C)(C)c2ccccc21 | 30.2 µM (inactive) |
| O=c1ccc2c(-c3ccccc3S(=O)(=O)O)c3ccc(O)c(O)c3oc-2c1O | > 80 µM (inactive) |
| CN1/C(=C\C=N\NC(=O)c2ccc(O)cc2)C(C)(C)c2ccccc21 | > 80 µM (inactive) |
| CCN1C(=O)/C(=C2\C=Cc3ccccc3N2CC)SC1=S | > 80 µM (inactive) |
| Cc1ccc(C(=O)NNc2c3ccccc3nc3ccccc23)cc1 | > 80 µM (inactive) |
| Cc1c(C(=O)O)c(O)cc2c1C(=O)c1c(O)c([C@@H]3O[C@H](CO)[C@@H](O)[C@H](O)[C@H]3O)c(O)c(O)c1C2=O | > 80 µM (inactive) |
| CN(C)/C=C/c1oc2ccc(O)cc2c1[N+](=O)[O-] | > 80 µM (inactive) |
| C[n+]1c2ccccc2nc2ccc(NCCO)cc21 | > 80 µM (inactive) |
| Oc1ccc(N=Nc2c(O)ccc3ccccc23)cc1 | 54.8 µM (inactive) |
| COc1ccc(OCC(=O)NNc2c3ccccc3nc3ccccc23)cc1 | > 80 µM (inactive) |
